Target: EGFR Kinase (Homo sapiens, UniProt P00533)
Experiment: EGFR inhibitory activity test (HTRF kinEASE STK S1 kinase assay)
Type: biochemical
Settings: replicate wells, read-out: IC50(nM), Inhibitory Activity of Compounds on EGFR Kinase
Description: In a pilot study, the compounds disclosed herein were screened for their EGFR inhibitory activity. The Cisbio Research Product HTRF kinEASE STK S1 kinase assay/inhibitor screening Kit, can detect the generation of the phosphorylated substrate. Kinase, biotinylated substrate and ATP were first added into buffer solution, and the phosphorylated biotinylated substrates were formed by enzyme reaction. Then, to the above solution was added europium-labeled anti-phospho-site specific antibodies and XL665-labeled avidin. The Specific combinations of antibody with antigen, and biotin with avidin, bring the europium and XL665 closer together and resonance energy transferred. The signals at 620 nm and 665 nm were detected, and the activity of the kinase was evaluated by the ratio of the two signals value.

Sequence of EGFR Kinase (P00533 25-1210): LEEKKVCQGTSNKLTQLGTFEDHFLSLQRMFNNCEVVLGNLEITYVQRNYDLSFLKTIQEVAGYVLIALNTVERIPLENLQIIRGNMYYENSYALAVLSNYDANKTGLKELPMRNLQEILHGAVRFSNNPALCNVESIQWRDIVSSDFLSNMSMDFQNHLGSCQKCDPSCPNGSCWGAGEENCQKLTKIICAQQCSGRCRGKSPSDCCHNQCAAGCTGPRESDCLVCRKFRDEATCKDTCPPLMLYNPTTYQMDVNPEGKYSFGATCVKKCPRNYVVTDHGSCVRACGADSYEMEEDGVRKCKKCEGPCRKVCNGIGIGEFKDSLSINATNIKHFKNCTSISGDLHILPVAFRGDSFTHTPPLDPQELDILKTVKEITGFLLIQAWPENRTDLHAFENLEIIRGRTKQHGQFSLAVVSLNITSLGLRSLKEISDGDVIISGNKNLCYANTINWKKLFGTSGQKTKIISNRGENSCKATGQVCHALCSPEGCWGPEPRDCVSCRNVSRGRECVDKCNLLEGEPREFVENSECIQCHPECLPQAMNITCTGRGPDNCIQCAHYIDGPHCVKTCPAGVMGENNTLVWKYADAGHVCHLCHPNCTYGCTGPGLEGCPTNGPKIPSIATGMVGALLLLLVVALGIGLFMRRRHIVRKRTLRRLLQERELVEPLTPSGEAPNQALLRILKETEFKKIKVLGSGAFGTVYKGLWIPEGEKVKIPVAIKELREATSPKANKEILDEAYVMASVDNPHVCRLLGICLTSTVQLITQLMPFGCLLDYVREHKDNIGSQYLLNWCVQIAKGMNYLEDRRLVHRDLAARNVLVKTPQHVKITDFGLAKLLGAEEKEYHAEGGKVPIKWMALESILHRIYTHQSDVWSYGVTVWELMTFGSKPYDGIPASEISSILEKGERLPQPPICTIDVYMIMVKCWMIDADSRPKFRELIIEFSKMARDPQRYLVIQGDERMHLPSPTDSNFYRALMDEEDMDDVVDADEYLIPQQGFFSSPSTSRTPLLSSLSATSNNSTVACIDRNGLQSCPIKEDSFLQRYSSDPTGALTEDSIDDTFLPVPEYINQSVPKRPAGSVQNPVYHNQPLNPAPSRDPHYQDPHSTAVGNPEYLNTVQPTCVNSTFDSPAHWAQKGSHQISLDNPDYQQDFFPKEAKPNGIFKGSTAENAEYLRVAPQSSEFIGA

SMILES	IC50
COc1cc2ncnc(Nc3ccc(F)c(Cl)c3)c2cc1OCCCN1CCn2c(nnc2C(F)(F)F)C1 [Example 1, N-(3-chloro-4-fluorophenyl)-7-methoxy-6-(3-(3-(trifluoromethyl)-5,6-dihydro-[1,2,4]triazolo[4,3-a]pyrazin-7(8H)-yl)propoxy)quinazolin-4-amine]	1 to 10 nM
CCc1nnc2n1CCN(CCCOc1cc3c(Nc4ccc(F)c(Cl)c4)ncnc3cc1OC)C2 [Example 2, N-(3-chloro-4-fluorophenyl)-6-(3-(3-ethyl-5,6-dihydro-[1,2,4]triazolo[4,3-a]pyrazin-7(8H)-yl)propoxy)-7-methoxyquinazolin-4-amine]	> 10 nM
COc1cc2ncnc(Nc3ccc(F)c(Cl)c3)c2cc1OCCCN1CCn2cnnc2C1 [Example 3, N-(3-chloro-4-fluorophenyl)-6-(3-(5,6-dihydro-[1,2,4]triazolo[4,3-a]pyrazin-7(8H)-yl)propoxy)-7-methoxyquinazolin-4-amine]	0.101 to 1 nM
COc1cc2ncnc(Nc3ccc(F)c(Cl)c3)c2cc1OCCCN1C[C@@H]2C[C@]2(O)C1 [Example 4, (1R,5S)-3-(3-((4-((3-chloro-4-fluorophenyl)amino)-7-methoxyquinazolin-6-yl)oxy)propyl)-3-azabicyclo[3.1.0]hexan-1-ol]	0.001 to 0.1 nM
COc1cc2ncnc(Nc3ccc(F)c(Cl)c3)c2cc1OCCCN1C[C@@H]2C[C@]2(N(C)C)C1 [Example 5]	0.101 to 1 nM
COc1cc2ncnc(Nc3ccc(F)c(Cl)c3)c2cc1OCCCN1CC2OCCOC2C1 (centres unmarked) [Example 6, N-(3-chloro-4-fluorophenyl)-7-methoxy-6-(3-(tetrahydro-2H-[1,4]dioxino[2,3-c]pyrrol-6(3H)-yl)propoxy)quinazolin-4-amine]	0.001 to 0.1 nM
COc1cc2ncnc(Nc3ccc(F)cc3)c2cc1OCCCN1CC2OCCOC2C1 (centres unmarked) [Example 7, N-(4-fluorophenyl)-7-methoxy-6-(3-(tetrahydro-2H-[1,4]dioxino[2,3-c]pyrrol-6(3H)-yl)propoxy) quinazolin-4-amine]	1 to 10 nM
C#Cc1cccc(Nc2ncnc3cc(OC)c(OCCCN4CC5OCCOC5C4)cc23)c1 (centres unmarked) [Example 8, N-(3-ethynylphenyl)-7-methoxy-6-(3-(tetrahydro-2H-[1,4]dioxino[2,3-c]pyrrol-6(3H)-yl)propoxy)quinazolin-4-amine]	0.001 to 0.1 nM
C#Cc1cc(Nc2ncnc3cc(OC)c(OCCCN4CC5OCCOC5C4)cc23)ccc1F (centres unmarked) [Example 9, N-(3-ethynyl-4-fluorophenyl)-7-methoxy-6-(3-(tetrahydro-2H-[1,4]dioxino[2,3-c]pyrrol-6(3H)-yl)propoxy)quinazolin-4-amine]	1 to 10 nM
COc1cc2ncnc(Nc3ccc(Br)cc3F)c2cc1OCCCN1CC2OCCOC2C1 (centres unmarked) [Example 10, N-(4-bromo-2-fluorophenyl)-7-methoxy-6-(3-(tetrahydro-2H-[1,4]dioxino[2,3-c]pyrrol-6(3H)-yl)propoxy)quinazolin-4-amine]	> 10 nM
COc1cc2ncnc(Nc3ccc(F)c(Cl)c3)c2cc1OCCCN1CC2CNCC2C1 (centres unmarked) [Example 11, N-(3-chloro-4-fluorophenyl)-6-(3-(hexahydropyrrolo[3,4-c]pyrrol-2(1H)-yl)propoxy)-7-methoxyquinazolin-4-amine]	0.001 to 0.1 nM
COc1cc2ncnc(Nc3ccc(F)c(Cl)c3)c2cc1OCCCN1CC2CN(C)CC2C1 (centres unmarked) [Example 12, N-(3-chloro-4-fluorophenyl)-7-methoxy-6-(3-(5-methylhexahydropyrrolo[3,4-c]pyrrol-2(1H)-yl)propoxy)quinazolin-4-amine]	0.101 to 1 nM
COc1cc2ncnc(Nc3ccc(F)c(Cl)c3)c2cc1OCCCN1CCC2CNCC21 (centres unmarked) [Example 13, N-(3-chloro-4-fluorophenyl)-6-(3-(hexahydropyrrolo[3,4-b]pyrrol-1(2H)-yl)propoxy)-7-methoxyquinazolin-4-amine]	0.001 to 0.1 nM
COc1cc2ncnc(Nc3ccc(F)c(Cl)c3)c2cc1OCCCN1CCC2CN(C(C)=O)CC21 (centres unmarked) [Example 14, 1-(1-(3-((4-((3-chloro-4-fluorophenyl)amino)-7-methoxyquinazolin-6-yl)oxy)propyl)hexahydropyrrolo[3,4-b]pyrrol-5(1H)-yl)ethanone]	1 to 10 nM

The next lines start with the values.

IC50	SMILES
0.101 to 1 nM	COc1cc2ncnc(Nc3ccc(F)c(Cl)c3)c2cc1OCCCN1CC2OCCN(C)C2C1 (centres unmarked) [Example 15, N-(3-chloro-4-fluorophenyl)-7-methoxy-6-(3-(4-methylhexahydropyrrolo[3,4-b][1,4]oxazin-6(2H)-yl)propoxy)quinazolin-4-amine]
1 to 10 nM	COc1cc2ncnc(Nc3ccc(F)c(Cl)c3)c2cc1OCCCN1CC2OCCN(Cc3ccccc3)C2C1 (centres unmarked) [Example 16, 6-(3-(4-benzylhexahydropyrrolo[3,4-b][1,4]oxazin-6(2H)-yl)propoxy)-N-(3-chloro-4-fluorophenyl)-7-methoxyquinazolin-4-amine]
0.001 to 0.1 nM	COc1cc2ncnc(Nc3ccc(F)c(Cl)c3)c2cc1OCCCN1CCC2CCNC2C1 (centres unmarked) [Example 17, N-(3-chloro-4-fluorophenyl)-6-(3-(hexahydro-1H-pyrrolo[2,3-c]pyridin-6(2H)-yl)propoxy)-7-methoxyquinazolin-4-amine]
0.001 to 0.1 nM	COc1cc2ncnc(Nc3ccc(F)c(Cl)c3)c2cc1OCCCN1CCC2CCN(C)C2C1 (centres unmarked) [Example 18, N-(3-chloro-4-fluorophenyl)-7-methoxy-6-(3-(1-methylhexahydro-1H-pyrrolo[2,3-c]pyridin-6(2H)-yl)propoxy)quinazolin-4-amine]
0.001 to 0.1 nM	COc1cc2ncnc(Nc3ccc(F)c(Cl)c3)c2cc1OCCCN1CCC2NCCC2C1 (centres unmarked) [Example 19, N-(3-chloro-4-fluorophenyl)-6-(3-(hexahydro-1H-pyrrolo[3,2-c]pyridin-5(6H)-yl)propoxy)-7-methoxyquinazolin-4-amine]
0.001 to 0.1 nM	COc1cc2ncnc(Nc3ccc(F)c(Cl)c3)c2cc1OCCCN1CC2CCOC(=O)C2C1 (centres unmarked) [Example 20, 2-(3-((4-((3-chloro-4-fluorophenyl)amino)-7-methoxyquinazolin-6-yl)oxy)propyl)hexahydropyrano[3,4-c]pyrrol-4(2H)-one]
0.001 to 0.1 nM	COc1cc2ncnc(Nc3ccc(F)c(Cl)c3)c2cc1OCCCN1CC2CCCC2C1 (centres unmarked) [Example 21, N-(3-chloro-4-fluorophenyl)-6-(3-(hexahydrocyclopenta[c]pyrrol-2(1H)-yl)propoxy)-7-methoxyquinazolin-4-amine]
0.001 to 0.1 nM	COc1cc2ncnc(Nc3ccc(F)c(Cl)c3)c2cc1OCCCN1CC2COCC2C1 (centres unmarked) [Example 22, N-(3-chloro-4-fluorophenyl)-7-methoxy-6-(3-(tetrahydro-1H-furo[3,4-c]pyrrol-5(3H)-yl)propoxy) quinazolin-4-amine]
1 to 10 nM	COc1cc2ncnc(Nc3ccc(F)c(Cl)c3)c2cc1OCCCN1CC2CCOCC2C1 (centres unmarked) [Example 23, N-(3-chloro-4-fluorophenyl)-6-(3-(hexahydropyrano[3,4-c]pyrrol-2(3H)-yl)propoxy)-7-methoxyquinazolin-4-amine]
0.001 to 0.1 nM	COc1cc2ncnc(Nc3ccc(F)c(Cl)c3)c2cc1OCCCN1CCc2noc(C)c2C1 [Example 24, N-(3-chloro-4-fluorophenyl)-7-methoxy-6-(3-(3-methyl-6,7-dihydroisoxazolo[4,3-c]pyridin-5(4H)-yl)propoxy)quinazolin-4-amine]
0.001 to 0.1 nM	COc1cc2ncnc(Nc3ccc(F)c(Cl)c3)c2cc1OCCCN1CC2CCCNC2C1 (centres unmarked) [Example 25, N-(3-chloro-4-fluorophenyl)-6-(3-(hexahydro-1H-pyrrolo[3,4-b]pyridin-6(2H)-yl)propoxy)-7-methoxyquinazolin-4-amine]
0.001 to 0.1 nM	COc1cc2ncnc(Nc3ccc(F)c(Cl)c3)c2cc1OCCCN1CCCC2CNCC21 (centres unmarked) [Example 26, N-(3-chloro-4-fluorophenyl)-7-methoxy-6-(3-(octahydro-1H-pyrrolo[3,4-b]pyridin-1-yl)propoxy) quinazolin-4-amine]
0.001 to 0.1 nM	COc1cc2ncnc(Nc3ccc(F)c(Cl)c3)c2cc1OCCCN1CCCC2CN(C)CC21 (centres unmarked) [Example 27, N-(3-chloro-4-fluorophenyl)-7-methoxy-6-(3-(6-methyloctahydro-1H-pyrrolo[3,4-b]pyridin-1-yl)propoxy)quinazolin-4-amine]
0.001 to 0.1 nM	COc1cc2ncnc(Nc3ccc(F)c(Cl)c3)c2cc1OCCCN1CC2CCCN(C)C2C1 (centres unmarked) [Example 28, N-(3-chloro-4-fluorophenyl)-7-methoxy-6-(3-(1-methylhexahydro-1H-pyrrolo[3,4-b]pyridin-6(2H)-yl)propoxy)quinazolin-4-amine]
0.001 to 0.1 nM	CCN1CC2CCCN(CCCOc3cc4c(Nc5ccc(F)c(Cl)c5)ncnc4cc3OC)C2C1 (centres unmarked) [Example 29, N-(3-chloro-4-fluorophenyl)-6-(3-(6-ethyloctahydro-1H-pyrrolo[3,4-b]pyridin-1-yl)propoxy)-7-methoxyquinazolin-4-amine]
0.001 to 0.1 nM	COc1cc2ncnc(Nc3ccc(F)c(Cl)c3)c2cc1OCCCN1CCCC2OCCCC21 (centres unmarked) [Example 31, N-(3-chloro-4-fluorophenyl)-6-(3-(hexahydro-2H-pyrano[3,2-b]pyridin-5(3H)-yl)propoxy)-7-methoxyquinazolin-4-amine]
1 to 10 nM	COc1cc2ncnc(Nc3ccc(F)c(Cl)c3)c2cc1OCCCN1CC2C(C1)C2N(C)C (centres unmarked) [Example 32, N-(3-chloro-4-fluorophenyl)-6-(3-(6-(dimethylamino)-3-azabicyclo[3.1.0]hexan-3-yl)propoxy)-7-methoxyquinazolin-4-amine]
0.001 to 0.1 nM	COc1cc2ncnc(Nc3ccc(F)c(Cl)c3)c2cc1OCCCN1CCC2CCNCC2C1 (centres unmarked) [Example 33, N-(3-chloro-4-fluorophenyl)-7-methoxy-6-(3-(octahydro-2,7-naphthyridin-2(1H)-yl)propoxy) quinazolin-4-amine]

From patent US9181277B2, “Aminoquinazoline derivatives and their salts and methods of use” (SUNSHINE LAKE PHARMA CO., LTD., priority 2011, dated 2015)
